Source: patent publication US10662195B2, “Protein kinase conjugates and inhibitors” (Celgene Avilomics Research, Inc., priority 2009, dated 2020)

Assays:
FLT3 = molecular target: T1, FLT3 (Homo sapiens, UniProt P36888); test: FLT-3 Omnia continuous-read kinase assay; type: biochemical; conditions: 30 min pre-incubation, [ATP]=500 μM; read-out: IC50_APP FLT3
T1 construct: purchased PV3182
T1 sequence (P36888 27-993): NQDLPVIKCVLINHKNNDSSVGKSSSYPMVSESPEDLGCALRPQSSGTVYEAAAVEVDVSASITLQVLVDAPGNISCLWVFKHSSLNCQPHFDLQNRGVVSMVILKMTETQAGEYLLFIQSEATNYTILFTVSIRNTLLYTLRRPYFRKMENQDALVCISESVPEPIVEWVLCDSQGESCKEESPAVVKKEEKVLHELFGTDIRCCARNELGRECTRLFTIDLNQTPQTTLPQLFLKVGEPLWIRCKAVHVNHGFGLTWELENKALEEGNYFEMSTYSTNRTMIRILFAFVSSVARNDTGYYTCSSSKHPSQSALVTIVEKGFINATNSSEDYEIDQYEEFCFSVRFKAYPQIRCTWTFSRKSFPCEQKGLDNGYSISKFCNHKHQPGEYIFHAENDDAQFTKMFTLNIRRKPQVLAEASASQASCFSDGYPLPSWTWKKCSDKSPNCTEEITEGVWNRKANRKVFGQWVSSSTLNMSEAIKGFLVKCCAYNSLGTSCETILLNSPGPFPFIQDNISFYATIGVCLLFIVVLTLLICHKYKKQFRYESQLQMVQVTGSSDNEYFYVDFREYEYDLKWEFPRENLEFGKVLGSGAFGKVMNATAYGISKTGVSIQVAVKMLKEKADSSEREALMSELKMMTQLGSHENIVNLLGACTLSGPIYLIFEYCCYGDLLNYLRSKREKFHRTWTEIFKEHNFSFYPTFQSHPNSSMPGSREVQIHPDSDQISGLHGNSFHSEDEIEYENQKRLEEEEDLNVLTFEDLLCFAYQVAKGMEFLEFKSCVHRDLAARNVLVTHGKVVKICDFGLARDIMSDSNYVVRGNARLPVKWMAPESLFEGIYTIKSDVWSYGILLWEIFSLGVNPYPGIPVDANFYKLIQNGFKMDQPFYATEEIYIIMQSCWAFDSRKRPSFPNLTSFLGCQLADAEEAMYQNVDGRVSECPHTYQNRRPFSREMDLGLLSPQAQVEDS
Experimental: A. KDR and FLT-3 Omnia Assay for Potency Assessment:
The protocol below describes a continuous-read kinase assay to measure inherent potency of Avila Therapeutics' compounds against active KDR and FLT-3 enzymes. The assay was performed substantially as described by the vendor (Invitrogen, Carlsbad, Calif.; http://www.invitrogen.com/content.cfm?pageid=11338.)
Briefly, 10× stocks of KDR from Invitrogen or BPS Bioscience (PV3660 or 40301) and FLT-3 (PV3182) enzymes, 1.13×ATP (AS001A) and Y9-Sox or Y12-Sox peptide substrates (KCZ1001) were prepared in 1× kinase reaction buffer consisting of 20 mM Tris, pH 7.5, 5 mM MgCl2, 1 mM EGTA, 5 mM β-glycerophosphate, 5% glycerol (10× stock, KB002A) and 0.2 mM DTT (DS001A). 5 μL of enzyme were pre-incubated in a Corning (#3574) 384-well, white, non-binding surface microtiter plate (Corning, N.Y.) for 30 min at 27° C. with a 0.5 μL volume of 50% DMSO and serially diluted compounds prepared in 50% DMSO. Kinase reactions were started with the addition of 45 μL of the ATP/Y9 or Y5-Sox peptide substrate mix and monitored every 30-90 seconds for 60 minutes at λex360/λem485 in a Synergy^4 plate reader from BioTek (Winooski, Vt.). At the conclusion of each assay, progress curves from each well were examined for linear reaction kinetics and fit statistics (R^2, 95% confidence interval, absolute sum of squares). Initial velocity (0 minutes to 20+ minutes) from each reaction was determined from the slope of a plot of relative fluorescence units vs time (minutes) and then plotted against inhibitor concentration to estimate IC50 from Log [Inhibitor] vs Response, Variable Slope model in GraphPad Prism from GraphPad Software (San Diego, Calif.).
[FLT-3]=15 nM, [ATP]=500 μM and [Y5-Sox peptide]=10 μM (ATP KMapp=470 μM)
The reported IC50_APP and IC50 values are in units of nM.

KDR = KDR (Homo sapiens, UniProt P35968); test: Mass spectral analysis of tryptic digest of KDR after incubation with compound; type: binding; conditions: KDR 40 pmols, compound 395 pmols, 3 hrs, MALDI
Sequence of KDR (P35968 20-1356): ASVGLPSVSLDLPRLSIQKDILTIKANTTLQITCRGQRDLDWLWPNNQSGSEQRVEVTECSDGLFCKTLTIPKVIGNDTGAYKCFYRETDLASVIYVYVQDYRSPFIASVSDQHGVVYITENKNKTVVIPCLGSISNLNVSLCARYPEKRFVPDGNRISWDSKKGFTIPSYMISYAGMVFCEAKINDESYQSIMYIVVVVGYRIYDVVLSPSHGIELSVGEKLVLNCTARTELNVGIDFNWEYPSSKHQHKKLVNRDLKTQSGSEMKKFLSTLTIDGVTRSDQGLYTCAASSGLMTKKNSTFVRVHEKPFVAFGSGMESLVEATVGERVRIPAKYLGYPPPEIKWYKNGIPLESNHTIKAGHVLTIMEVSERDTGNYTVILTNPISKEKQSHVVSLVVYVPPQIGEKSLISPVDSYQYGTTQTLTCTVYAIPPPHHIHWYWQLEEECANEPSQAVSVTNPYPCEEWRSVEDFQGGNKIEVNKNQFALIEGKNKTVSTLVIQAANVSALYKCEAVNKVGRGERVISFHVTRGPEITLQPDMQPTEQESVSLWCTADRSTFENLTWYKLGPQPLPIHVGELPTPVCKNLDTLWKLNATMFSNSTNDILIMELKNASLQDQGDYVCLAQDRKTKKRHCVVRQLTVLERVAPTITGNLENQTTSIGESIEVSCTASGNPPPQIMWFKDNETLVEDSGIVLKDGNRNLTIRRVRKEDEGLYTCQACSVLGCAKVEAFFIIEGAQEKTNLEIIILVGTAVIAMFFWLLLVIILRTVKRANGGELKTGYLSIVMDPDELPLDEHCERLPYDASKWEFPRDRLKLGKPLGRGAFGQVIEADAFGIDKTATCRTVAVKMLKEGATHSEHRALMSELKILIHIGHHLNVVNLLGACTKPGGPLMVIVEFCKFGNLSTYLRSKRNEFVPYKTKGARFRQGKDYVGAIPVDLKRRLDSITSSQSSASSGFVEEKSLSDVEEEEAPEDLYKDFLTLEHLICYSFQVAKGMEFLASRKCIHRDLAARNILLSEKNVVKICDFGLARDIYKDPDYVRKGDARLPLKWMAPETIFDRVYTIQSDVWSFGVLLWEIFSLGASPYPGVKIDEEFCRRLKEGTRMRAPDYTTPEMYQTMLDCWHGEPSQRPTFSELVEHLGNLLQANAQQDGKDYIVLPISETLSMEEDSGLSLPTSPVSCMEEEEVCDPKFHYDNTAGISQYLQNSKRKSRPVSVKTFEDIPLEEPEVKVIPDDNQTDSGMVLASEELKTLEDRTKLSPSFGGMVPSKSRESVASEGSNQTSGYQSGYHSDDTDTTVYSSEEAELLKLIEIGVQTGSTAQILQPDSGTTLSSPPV
Experimental: KDR kinase (40 pmols) was incubated with II-2 (395 pmols) for 3 hrs at 10× access prior to tryptic digestion. Iodoacetamide was used as the alkylating agent after compound incubation. For tryptic digests a 5 ul aliquot (6.7 pmols) was diluted with 10 ul of 0.1% TFA prior to micro C18 Zip Tipping directly onto the MALDI target using alpha cyano-4-hydroxy cinnamic acid as the matrix (5 mg/ml in 0.1% TFA:Acetonitrile 50:50).
For tryptic digests the instrument was set in Reflectron mode with a pulsed extraction setting of 1800. Calibration was done using the Laser Biolabs Pep Mix standard (1046.54, 1296.69, 1672.92, 2093.09, 2465.20). For CID/PSD analysis the peptide was selected using cursors to set ion gate timing and fragmentation occurred at a laser power about 20% higher and He was used as the collision gas for CID. Calibration for fragments was done using the P14R fragmentation calibration for the Curved field Reflectron.

SMILES: C=CC(=O)N1CCC(Sc2nc(Nc3ncc(C#N)s3)cc(N3CCN(C)CC3)n2)CC1 [II-2, 2-(2-(1-Acryloylpiperidin-4-ylthio)-6-(4-methylpiperazin-1-yl)pyrimidin-4-ylamino)thiazole-5-carbonitrile]
- IC50 (FLT3): 0.508 nM
- MH+ of compound-modified tryptic peptide (ICDFGLAR) of KDR (KDR): 1364.63
